Experimental data reported in US11396535B2, “Cyclic peptide analogs of melanocortin and amanitin and methods of making such” (THE UNIVERSITY OF BRITISH COLUMBIA, priority 2019, dated 2022).
pIC50, pKd: −log10 of the molar value. Starred links: 1 amine or outer side, 2 acyl side, 3 side chain; linkers in the order of their positions; H or OH if unused. Positions of bridges follow the written chain, without caps; N, C: chain ends. Non-standard residues stand in square brackets, D forms with d. Residues, ends and D or L forms follow the SMILES beside them. ξ: configuration not given here. Ile(4R-OH,5-OH) = C[C@H]([C@H](N)C(=O)O)[C@@H](O)CO; X1 = O=C([C@H](Cn1cc2ccccc2c1[*:3])N[*:1])[*:2]; Hyp = O=C(O)[C@@H]1C[C@@H](O)CN1; Dap = NC[C@H](N)C(=O)O; ξC = NC(CS)C(=O)O

Columns and labels:
CHO cells [1] = type: cell-based; details: for toxicity (cytotoxicity): triplicate
Procedure: FIG. 6: Cytotoxicity assays—CHO cells were incubated with α-amanitin, the monocyclic octapeptide precursor and the FlICk-amanitin-1 for 72 h in triplicate and cell viability was assessed by spectrophotometry with MTT indicator.
FIGS. 11A-11B: MTT cell viability assay against CHO cells: (A) alpha-amanitin; (B) FlICk-amanitin.
Both FlICk amanitin and authentic α-amanitin (purchased from Sigma Aldrich) were dissolved in H2O. The FlICk amanitin concentrations used were 100 μM, 20 μM, 4 μM, 0.8 μM, 0.16 μM, 0.032 μM, 0.0064 μM, 0.00128 μM. The α-amanitin concentrations used were 10 μM, 2 μM, 0.4 μM, 0.08 μM, 0.016 μM, 0.0032 μM, 0.00064 μM, 0.000128 μM, 0.0000256 μM. The cell culture and MTT assay procedures were carried out as per our report on the total synthesis of α-amanitin^38. The MTT assays were run in triplicate. The IC50 assay curves were produced using Prism Software.

melanocortin receptors = details: literature value; cited from earlier work
CHO cells [2] = details: literature value, read-out: IC50 (cytotoxic to CHO cells); cited from earlier work

## CC[C@H](C)[C@@H]1NC(=O)CNC(=O)[C@H](CN)NC(=O)[C@H]([C@@H](C)[C@@H](O)CO)NC(=O)[C@@H]2C[C@@H](O)CN2C(=O)[C@H](CC(N)=O)NC(=O)[C@H](CS)NC(=O)CNC1=O [monocyclic octapeptide precursor, Cyclo-[DhIle-Dap-Gly-Ile-Gly-Cys-Asn-Hyp]] (cyclo(CN[Hyp][Ile(4R-OH,5-OH)][Dap]GIG))
CHO cells [1]; 72 h, MTT
  toxicity (cytotoxicity): no detectable toxicity

## CC[C@H](C)[C@@H]1NC(=O)CNC(=O)[C@@H]2Cn3cc4ccccc4c3SCC(NC(=O)CNC1=O)C(=O)N[C@@H](CC(N)=O)C(=O)N1C[C@H](O)C[C@H]1C(=O)N[C@@H]([C@@H](C)[C@@H](O)CO)C(=O)N2 [FlICk-amanitin-1] (cyclo(GIG[ξC]N[Hyp][Ile(4R-OH,5-OH)][X1]); thioether 4-8)
CHO cells [1]; 72 h, MTT
  fold less toxic than α-amanitin: approximately 100 fold
  toxicity (cytotoxicity): detectable toxicity
CHO cells [1]; versus dideoxy-amanitin IC50 of 2 μM
  fold less toxic than dideoxy-amanitin: 20 fold

## N-Acetyl-L-norleucyl-L-α-aspartyl-L-histidyl-D-phenylalanyl-L-arginyl-L-tryptophyl-L-lysinamide (2→7)-lactam [Melanotan-II]
Melanocortin receptors
  pKd: ~9.00

## α-amanitin
CHO cells [2]
  pIC50: ~6.30
